Results as given in patent EP1803452A1, “ESTER DERIVATIVE AND PHARMACEUTICAL USE THEREOF” (Japan Tobacco, Inc., priority 2004, dated 2006).

Columns and labels:
[1] = Metabolic stability test in liver S9; assay type: in vitro ADME; details: pH 7.4, human liver S9 2 mg protein/mL, LC/MS; for remaining at 10 min: unchanged form after 10 minutes at 37°C, read-out: Remaining rate in human liver S9 (%/10min); for remaining at 1 h: unchanged form after 60 minutes at 37°C, read-out: Remaining rate in human liver S9 (%/60min)
Method: Human liver S9 (final concentration: 2 mg protein/mL), was suspended in 100 mM potassium phosphate buffer (pH 7.4, containing β-nicotinamide adenine dinucleotide phosphate: 1.3 mM, D-glucose-6- phosphate: 3.3 mM, magnesium chloride: 3.3 mM, glucose-6-phosphate dehydrogenase:0.4 U/mL). The suspension was mixed with a solution of a sample dissolved in DMSO. The solution was incubated at 37°C for 0, 10 and 60 minutes, and an acetonitrile containing formic acid (final concentration: 0.1%) was added thereto. The solutions were centrifuged, and the concentration of the sample (unchanged form) in the supernatant was determined by high performance liquid chromatography/mass spectrometry (LC/MS). Based on the data obtained, remaining rate (%) was calculated according to the following equation. Remaining rate(%) = amount of sample 0,10, or 60 minutes after [formula] incubation/amount of sample at zero time after incubation × 100 [formula]
(§1) With respect to the compounds obtained in Working Examples according to the present invention (Compounds 1-1 to 1-115, 2-1, 3-1, 3-2, and 4-1 to 4-4), the results of the remaining rate in human liver S9 and plasma are shown in Tables 28 to 32.

[2] = Metabolic stability test in plasma; assay type: in vitro ADME, human; details: LC/MS; for remaining at 10 min: unchanged form after 10 minutes at 37°C in human plasma, read-out: Remaining rate in human plasma (%/10min); for remaining at 1 h: unchanged form after 60 minutes at 37°C in human plasma, read-out: Remaining rate in human plasma (%/60min)
Method: A sample dissolved in DMSO was added to plasma of human or animal species (mouse and hamster). The solutions were incubated at 37°C for 0, 10 and 60 minutes, and acetonitrile containing formic acid (final concentration: 0.1%) was added thereto. The solutions were centrifuged, and the concentration of the sample (unchanged form) in the supernatant was determined by high performance liquid chromatography/mass spectrometry (LC/MS). Based on the data obtained, the remaining rate (%) was calculated according to the following equation. Remaining rate(%) = amount of sample 0,10, or 60 minutes after incubation/amount of sample at zero time after incubation × 100 [formula]
as §1

[3] = Stability test in buffer (pH 7.4); assay type: physicochemical; details: phosphate buffer/acetonitrile 7:3, 100 mM potassium phosphate buffer (pH 7.4) and acetonitrile 7:3 (v/v), LC/MS; for remaining at 10 min: 10 minutes at 37°C, read-out: Buf. remaining rate (%/10min); for remaining at 1 h: 60 minutes at 37°C, read-out: Buf. remaining rate (%/60min)
Method: In the tables, Buf. remaining rate was determined by stability test in buffer (pH 7.4) as described below. A sample dissolved in DMSO was mixed with a mixed solution of 100 mM potassium phosphate buffer and acetonitrile in the ratio of 7:3 (v/v). The mixture was incubated at 37°C for 0, 10, and 60 minutes, and acetonitrile containing formic acid (final concentration: 0.1%) was added thereto. The solution was centrifuged, and the concentration of the sample (unchanged form) in the supernatant was determined by high performance liquid chromatography/mass spectrometry (LC/MS). Based on the data obtained, Buf. remaining rate (%) was calculated according to the following equation. Buf.remaining rate(%) = amount of sample 0,10, or 60 minutes after incubation/amount of sample at zero time after incubation × 100 [formula]

Row | Compound | remaining at 10 min [1] [%] | remaining at 1 h [1] [%] | remaining at 10 min [2] [%] | remaining at 1 h [2] [%] | remaining at 10 min [3] [%] | remaining at 1 h [3] [%]
1 | COC(=O)c1ccc(OC(=O)CCCc2ccc(NC(=O)c3ccc(C)nc3-c3ccc(C(F)(F)F)cc3)c(C(=O)N(C)C)c2)cn1 [Compound 1-32, 5-[4-(3-dimethylcarbamoyl-4-{[6-methyl-2-(4-trifluoromethylphenyl)pyridine-3-carbonyl]amino}phenyl)butyryloxy]pyridine-2-carboxylic acid methyl ester] | 0 | 0 | 0 | 0 | 100 | 97
2 | COC(=O)c1ccc(OC(=O)CCCc2ccc(NC(=O)c3ccccc3-c3ccc(C(F)(F)F)cc3)c(C(=O)N(C)C)c2)c(C(=O)OC)c1 [Compound 1-33, 4-(4-{3-dimethylcarbamoyl-4-[(4'-trifluoromethylbiphenyl-2-carbonyl)amino]phenyl}butyryloxy)isophthalic acid dimethyl ester] | 0 | 0 | 0 | 0 | 98 | 102
3 | COC(=O)c1cc(C)c(OC(=O)CCCc2ccc(NC(=O)c3ccccc3-c3ccc(C(F)(F)F)cc3)c(C(=O)N(C)C)c2)c(Cl)c1 [Compound 1-34, 3-chloro-4-(4-{3-dimethylcarbamoyl-4-[(4'-trifluoromethylbiphenyl-2-carbonyl)amino]phenyl}butyryloxy)-5-methylbenzoic acid methyl ester] | 16 | 4 | 52 | 0 | 98 | 103
4 | COc1cc(C(=O)OC(C)C)cc(Cl)c1OC(=O)CCCc1ccc(NC(=O)c2ccc(C)nc2-c2ccc(C(F)(F)F)cc2)c(C(=O)N(C)C)c1 [Compound 1-37, 3-chloro-4-[4-(3-dimethylcarbamoyl-4-{[6-methyl-2-(4-trifluoromethylphenyl)pyridine-3-carbonyl]amino}phenyl)butyryloxy]-5-methoxybenzoic acid isopropyl ester] | 37 | 11 | 0 | 0 | 99 | 99
5 | COc1cc(C(=O)OC(C)C)cc(OC)c1OC(=O)CCCc1ccc(NC(=O)c2ccc(C)nc2-c2ccc(C(F)(F)F)cc2)c(C(=O)N(C)C)c1 [Compound 1-44, 4-[4-(3-dimethylcarbamoyl-4-{[6-methyl-2-(4-trifluoromethylphenyl)pyridine-3-carbonyl]amino}phenyl)butyryloxy]-3,5-dimethoxybenzoic acid isopropyl ester] | 12 | 4 | 13 | 0 | 99 | 100

Other lines, results leading:

Row | remaining at 10 min [1] [%] | remaining at 1 h [1] [%] | remaining at 10 min [2] [%] | remaining at 1 h [2] [%] | remaining at 10 min [3] [%] | remaining at 1 h [3] [%] | Compound
6 | 5 | 0 | 43 | 0 | 100 | 105 | COC(=O)c1cc(C)c(OC(=O)CCCc2ccc(NC(=O)c3ccc(C)nc3-c3ccc(C(F)(F)F)cc3)c(C(=O)N(C)C)c2)c(Cl)c1 [Compound 1-35, 3-chloro-4-[4-(3-dimethylcarbamoyl-4-{[6-methyl-2-(4-trifluoromethylphenyl)pyridine-3-carbonyl]amino}phenyl)butyryloxy]-5-methylbenzoic acid methyl ester]
7 | 3 | 0 | 0 | 0 | 100 | 103 | COC(=O)c1cc(Cl)c(OC(=O)CCCc2ccc(NC(=O)c3ccc(C)nc3-c3ccc(C(F)(F)F)cc3)c(C(=O)N(C)C)c2)c(OC)c1 [Compound 1-36, 3-chloro-4-[4-(3-dimethylcarbamoyl-4-{[6-methyl-2-(4-trifluoromethylphenyl)pyridine-3-carbonyl]amino}phenyl)butyryloxy]-5-methoxybenzoic acid methyl ester]
8 | 11 | 2 | 0 | 0 | 101 | 102 | COc1cc(C(=O)OC(C)C)cc(F)c1OC(=O)CCCc1ccc(NC(=O)c2ccc(C)nc2-c2ccc(C(F)(F)F)cc2)c(C(=O)N(C)C)c1 [Compound 1-38, 4-[4-(3-dimethylcarbamoyl-4-{[6-methyl-2-(4-trifluoromethylphenyl)pyridine-3-carbonyl]amino}phenyl)butyryloxy]-3-fluoro-5-methoxybenzoic acid isopropyl ester]
9 | 5 | 2 | 0 | 0 | 98 | 104 | COC(=O)c1cc(OC)c(OC(=O)CCCc2ccc(NC(=O)c3ccc(C)nc3-c3ccc(C(F)(F)F)cc3)c(C(=O)N(C)C)c2)c(OC)c1 [Compound 1-39, 4-[4-(3-dimethylcarbamoyl-4-{[6-methyl-2-(4-trifluoromethylphenyl)pyridine-3-carbonyl]amino}phenyl)butyryloxy]-3,5-dimethoxybenzoic acid methyl ester]
10 | 5 | 0 | 0 | 0 | 100 | 102 | CCOc1cc(C(=O)OC)cc(Cl)c1OC(=O)CCCc1ccc(NC(=O)c2ccc(C)nc2-c2ccc(C(F)(F)F)cc2)c(C(=O)N(C)C)c1 [Compound 1-40, 3-chloro-4-[4-(3-dimethylcarbamoyl-4-{[6-methyl-2-(4-trifluoromethylphenyl)pyridine-3-carbonyl]amino}phenyl)butyryloxy]-5-ethoxybenzoic acid methyl ester]
11 | 4 | 0 | 37 | 0 | 103 | 106 | COC(=O)c1cc(C)c(OC(=O)CCCc2ccc(NC(=O)c3ccc(C)nc3-c3ccc(C(F)(F)F)cc3)c(C(=O)N(C)C)c2)c(F)c1 [Compound 1-41, 4-[4-(3-dimethylcarbamoyl-4-{[6-methyl-2-(4-trifluoromethylphenyl)pyridine-3-carbonyl]amino}phenyl)butyryloxy]-3-fluoro-5-methylbenzoic acid methyl ester]
12 | 5 | 0 | 52 | 0 | 103 | 103 | CCc1cc(C(=O)OC)cc(F)c1OC(=O)CCCc1ccc(NC(=O)c2ccc(C)nc2-c2ccc(C(F)(F)F)cc2)c(C(=O)N(C)C)c1 [Compound 1-42, 4-[4-(3-dimethylcarbamoyl-4-{[6-methyl-2-(4-trifluoromethylphenyl)pyridine-3-carbonyl]amino}phenyl)butyryloxy]-3-ethyl-5-fluorobenzoic acid methyl ester]
13 | 4 | 2 | 13 | 0 | 101 | 103 | CCOC(=O)c1cc(OC)c(OC(=O)CCCc2ccc(NC(=O)c3ccc(C)nc3-c3ccc(C(F)(F)F)cc3)c(C(=O)N(C)C)c2)c(OC)c1 [Compound 1-43, 4-[4-(3-dimethylcarbamoyl-4-{[6-methyl-2-(4-trifluoromethylphenyl)pyridine-3-carbonyl]amino}phenyl)butyryloxy]-3,5-dimethoxybenzoic acid ethyl ester]
